Data on 3 molecules can be found in US20240165072A1, “PHARMACEUTICAL COMPOSITION FOR ALLEVIATING OR TREATING HAIR LOSS THROUGH INFLAMMATION AMELIORATION OF HUMAN DERMAL PAPILLA CELLS AND PERIPHERAL CELLS AND INHIBITION OF 5A-REDUCTASE EXPRESSION” (BEN'S LAB. CO. LTD., priority 2021, published 2024).

Molecules are shown by their SMILES. In brackets after ≈: the same amount, converted by molar mass. Read-outs that look alike come from different tables or passages of the source. A value given as a limit tells only on which side of the number the result lay.

The subject of assay [1] is inducible nitric oxide synthase (iNOS). Briefly: iNOS expression inhibition in LPS-stimulated RAW 264.7 (Western blot). In kind it is cell-based, mouse. Particulars: 25 μg/ml, LPS 100 ng/ml, Western blot (FIG. 1). The procedure:
(§1) Mouse macrophage RAW 264.7 was dispensed into a 6-well plate at a concentration of 6×10^5 cells/well (number of cells per well), and cultured in an incubator at 37° C. under 5% CO2 using a DMEM Dulbecco's Modified Eagle's Medium (Sigma-Aldrich, Cat. No. D7777) for 24 hours, and then samples were added according to the concentrations.
(§2) Thirty minutes after the addition of the sample, lipopolysaccharide (LPS, 100 ng/ml) was added, and further cultured for 20 hours. After that, the medium was removed, washed with phosphate buffered saline (PBS) to collect the cells. In order to extract the protein, a lysis buffer for radioimmunoprecipitation assay (RIPA; sodium chloride 150 mM, sodium dodecyl sulfate (SDS) 0.1%, tris-hydrochloric acid (Tris-HCl: pH 7.5) 50 mM, ethylenediaminetetraacetic acid (EDTA) 2 mM, sodium deoxycholate 0.5%, Triton X-100 1%) was added and reacted, and then centrifuged at 10,000 rpm and 4° C. for 15 minutes to obtain the supernatant. The absorbance of the supernatant was then measured at 595 nm to determine the protein concentration of each sample. Then, the cell protein sample was mixed with sodium dodecyl sulfate (SDS) and a stain, and subjected to electrophoresis on a 12% SDS polyacrylamide gel. […]

Assay [2] has as its system nitric oxide production in RAW 264.7 cells. Nature of the assay: Inhibitory effect on nitric oxide production in macrophages (Griess). In kind it is cell-based, mouse. As to conditions: LPS 1 μg/ml, RAW 264.7 (FIG. 2); for inhibition of nitric oxide production, rank among the three samples: compared with kaempferol. The procedure: RAW 264.7 cells, which is a mouse macrophage cell line, were dispensed in a 24-well plate at a concentration of 2×10^5 cells/well, and cultured in an incubator at 37° C. under 5% CO2 for 24 hours. Epigallocatechin gallate (EGCG), genistein, and kaempferol, which were samples dissolved in DMSO, were added thereto according to the concentrations. At this time, the final concentration of DMSO was adjusted to 0.1%. After 30 minutes, LPS (lipopolysaccharide), which is an inflammation inducing substance, was added at a concentration of 1 μg/ml. After that, these were cultured in an incubator at 37° C. under 5% CO2 for 24 hours.
To quantify nitric oxide, 50 ? of Griess reagent A (5% phosphoric acid, 1% sulfanilamide) was added to 50 ? of the cell culture medium, and then the mixture was allowed to stand in a dark place for 5 minutes. 50 ? of Griess reagent B (0.1% N-(1-naphthyl)ethylenediamine dihydrochloride) was further added thereto, and allowed to react in a dark place for 5 minutes. The absorbance of this reactant was measured at 540 nm, which was compared with the standard curve to calculate the final concentration of nitrogen monoxide. A standard curve was obtained by reacting in the same manner as above using sodium nitrite instead of the cell culture medium and then measuring the absorbance.
(In general: The Griess reaction detects nitrite, a stable product of nitric oxide.)

Assay [3] has as its system IL-6 release in mouse macrophages RAW 264.7 cells. Briefly: Inhibition of IL-6 secretion in macrophages (ELISA). Particulars: for IC50: Mus musculus, RAW264.7, LPS 100 ng/ml. In kind it is cell-based. The procedure: (§3) Mouse macrophage RAW 264.7 was dispensed into a 24-well plate at a concentration of 2×10^5 cells/well, and cultured in an incubator at 37° C. under 5% CO2 using a DMEM medium for 24 hours, and then samples were added according to the concentrations. Thirty minutes after addition of the sample, LPS (100 ng/ml) was added and cultured at 37° C. for 20 hours to collect the culture medium. The secreted IL-6 and TNF-α were respectively quantified using Mouse IL-6 ELISA kit (Invitrogen, Thermo Scientific) and Mouse TNF-α ELISA kit (Invitrogen, Thermo Scientific).
(An ELISA detects its analyte on a solid surface through an enzyme-linked reagent.)

For assay [4], the system named is TNF-α release in mouse macrophages RAW 264.7 cells. Briefly: Inhibition of TNF-α secretion in macrophages (ELISA). Format: cell-based. As to conditions: for IC50: Mus musculus, RAW264.7, LPS 100 ng/ml. The procedure: as §3
The next assay relates to 5α-reductase type II. Briefly: Inhibition of 5α-reductase type II expression in human dermal papilla cells (Western blot). In kind it is cell-based. As to conditions: HFDPC; testosterone 10 μM; 72 hours; samples 10, 20 μg/ml; order genistein, kaempferol, EGCG (FIG. 4). On the procedure:
The medium was then removed, and cells were collected by washing with PBS to extract proteins. To extract a protein, a lysis buffer for radio immunoprecipitation assay (RIPA) (sodium chloride 150 mM, sodium dodecyl sulfate (SDS) 0.1%, tris-hydrochloric acid (Tris-HCl: pH 7.5) 50 mM, ethylenediaminetetraacetic acid (EDTA) 2 mM, sodium deoxycholate 0.5%, Triton X-100 1%) was added and reacted, and then centrifuged at 10,000 rpm and 4° C. for 15 minutes to collect the supernatant. Then, the absorbance was measured at 595 nm to determine the protein concentration of each sample. These cell protein samples were mixed with sodium dodecyl sulfate (SDS) and a stain, and subjected to electrophoresis on a 12% SDS polyacrylamide gel.
For orientation: Immunoblotting shows a protein as a band on a membrane.

Another assay relates to 5-lipoxygenase (5-LO). Nature of the assay: Inhibition of 5-lipoxygenase (5-LO) expression in RBL-2H3 (Western blot). Format: cell-based, rat. As to conditions: Compound 48/80 1 mg/ml (FIG. 5).
The test system of assay [5] is histamine release in RBL-2H3 cells. Briefly: Inhibition of histamine release in RBL-2H3 cells (Compound 48/80). Format: cell-based, rat. The procedure: White rat basophil leukemia cells (RBL-2H3) were dispensed into a 24-well plate at a concentration of 1×10^5 cells/well, and cultured for 24 hours. Samples were added according to the concentrations. After 1 hour, Compound 48/80 (1 mg/ml), which triggers an allergic reaction, was added and cultured for 20 minutes. The well plate was allowed to stand in a refrigerator at 4° C. for 10 minutes, and then the medium was collected and the amount of histamine released into the medium was quantified using the Histamine ELISA kit (Neogen).

The nature of assay [6]: DPPH radical scavenging ability. In kind it is biochemical. Particulars: for DPPH radical scavenging ability (IC50): DPPH 300 μM, 30 minutes. The procedure:
100 ? l sample and the same amount of DPPH (2,2-diphenyl-1-picrylhydrazyl, 300 μM) solution were mixed in a 96-well plate, and reacted in a dark place for 30 minutes, and the absorbance was measured at 520 nm. The same amount of ethanol was reacted instead of the sample, and the blank value was calculated according to the following Equation.
DPPH radical scavenging ability (%)=[1−(A−B)/C]×100
wherein, A is the absorbance of the sample-added group (DPPH+sample); B is the absorbance of the ethanol-added group (sample+ethanol) instead of DPPH; and C is the absorbance of the ethanol-added group (DPPH+ethanol) instead of the sample.

A short description of assay [7]: ABTS radical scavenging ability. In kind it is biochemical. As to conditions: for ABTS radical scavenging ability (IC50): 10 minutes, absorbance 734 nm. The procedure:
The ABTS radical scavenging ability was calculated according to the following Equation.
ABTS radical scavenging ability (%)=[1−(AB)/C]×100
wherein, A is the absorbance of the sample-added group (ABTS+sample); B is the absorbance of the distilled water-added group (sample+distilled water) instead of ABTS; and C is the absorbance of the ethanol-added group (ABTS+ethanol) instead of the sample.

In assay [8] the test system is IL-6 secretion in human follicle dermal papilla cells (HFDPC). Particulars: TST or DHT 10 μM, 72 hours (FIG. 3).
Description: Human follicle dermal papilla cells (HFDPC) were dispensed into a 12-well plate at a concentration of 1×10^5 cells/well, and cultured for 24 hours. After that, the medium was replaced with Dulbecco's modified eagle's medium (DMEM) containing no fetal bovine serum (FBS), and subjected to starvation for 24 hours, and then samples were added according to the concentrations (2, 5, 10, 20 μg/ml). […] Then, the medium was collected, and IL-6 secreted in the medium was quantified using a Human IL-6 ELISA kit (Invitrogen, Thermo Scientific).
Another assay deals with cyclooxygenase-2 (COX-2). Briefly: COX-2 expression inhibition in LPS-stimulated RAW 264.7 (Western blot). In kind it is cell-based, mouse. Particulars: 25 μg/ml, LPS 100 ng/ml, Western blot (FIG. 1). On the procedure: as §1, §2
Where [9] appears, read: highest inhibitory effect among EGCG, genistein, kaempferol.
Setting [10] is: Rattus norvegicus, Compound 48/80 1 mg/ml.

Description for 5-lipoxygenase (5-LO): White rat basophilic leukemia cells (RBL-2H3) were dispensed into a 6-well plate at a concentration of 3×10^5 cells/well, and cultured in an incubator at 37° C. under 5% CO2 using a DMEM medium for 24 hours. Samples were added according to the concentrations, cultured for 24 hours, and then Compound 48/80 (1 mg/ml), which is substance that induces an allergic reaction, was added, and cultured for 1 hour. After that, the medium was removed, and washed with PBS to collect the cells, and then proteins were extracted. To extract protein, lysis buffer for radioimmunoprecipitation assay (RIPA; sodium chloride 150 mM, sodium dodecyl sulfate (SDS) 0.1%, tris-hydrochloric acid (Tris-HCl: pH 7.5) 50 mM, ethylenediaminetetraacetic acid (EDTA) 2 mM, sodium deoxycholate 0.5%, Triton X-100 1%) was added and reacted, and then centrifuged at 10,000 rpm and 4° C. for 15 minutes to take the supernatant. The absorbance thereof was then measured at 595 nm to determine the protein concentration of each sample. Then, the cell protein sample was mixed with sodium dodecyl sulfate (SDS) and a stain, and subjected to electrophoresis on a 12% SDS polyacrylamide gel. […]

A word on the IC50: it is the concentration that gives 50% inhibition. High values mean weaker potency, low ones greater potency. A word on the inhibition: it is the change of the read-out against control, counted positive when it falls. Higher therefore signals strong suppression. For the molecule `O=c1c(O)c(-c2ccc(O)cc2)oc2cc(O)cc(O)c12` [Kaempferol], the “inhibition of iNOS expression” value in assay [1] is on record as “inhibited the expression of iNOS to the control (CON) levels”. The “inhibition of nitric oxide production” value in assay [2] (20 μg/ml) is “inhibited almost to the control level”. Further, the figures for the IC50 in assay [3] (20 hours), in assay [4] (20 hours) and in assay [5] (setting [10]) were 5.93 ± 0.07 mg/L (≈ 20.7 µM), 13.6 ± 0.72 mg/L (≈ 47.4 µM) and 0.2 ± 0.02 mg/L (≈ 0.699 µM), respectively. For the same molecule, the “inhibition of IL-6 in macrophages (in words)” value in assay [3] (setting [9]) is on record as “effectively inhibited”. In assay [4] (setting [9]), the “inhibition of TNF-α in macrophages (in words)” value is on record as “effectively inhibited”. Moreover, in the assay with 5α-reductase type II, the “inhibition of 5α-reductase type II expression” value is on record as “effectively inhibited”. Besides, the “inhibition of 5-LO expression” value in the assay on 5-lipoxygenase (5-LO) is “effectively inhibits 5-LO expression at the lowest concentration”. In assay [5] (Rattus norvegicus, at 0.2 μg/ml), this molecule displayed an inhibition at 0.2 µg/mL greater than 50%. Besides, the “DPPH radical scavenging ability (IC50)” value in assay [6] was determined as 11.66 ± 0.30 mg/L. Further, the “ABTS radical scavenging ability (IC50)” value in [7] was 6.18 ± 0.08 mg/L. Further, the “inhibition of the release of IL-6 by DHT or TST” value in assay [8] (10 μg/ml) is “almost completely inhibited”.

As to `O=c1c(-c2ccc(O)cc2)coc2cc(O)cc(O)c12` [Genistein], in the assay with cyclooxygenase-2 (COX-2), the “inhibition of COX-2 expression” value is reported as “mostly inhibited the expression of COX-2”. In [2], the “inhibition of nitric oxide production, rank among the three samples” value is “slightly decreased the inhibitory power”. In addition, the results for the IC50 in [3] (20 hours), in assay [4] (20 hours) and in [5] (setting [10]) were 8.92 ± 0.08 mg/L (≈ 33 µM), 14.99 ± 0.11 mg/L (≈ 55.5 µM) and greater than 1000 mg/L, respectively. In addition, the “inhibition of 5α-reductase type II expression” value with 5α-reductase type II is “effectively inhibited”. The molecule also had an inhibition at 1000 µg/mL in assay [5] (Rattus norvegicus, at 1000 μg/ml) of 46%. In addition, in assay [6] (at 100 ppm), the “DPPH radical scavenging ability” value stood at 5.18% at 100 ppm. In addition, the “ABTS radical scavenging ability” value in [7] (at 100 ppm) is given as 5.29% at 100 ppm. For the same molecule, the “inhibition of the release of IL-6 by DHT or TST” value in assay [8] (5 μg/ml) is given as “almost completely inhibited”.

For `O=C(O[C@@H]1Cc2c(O)cc(O)cc2O[C@@H]1c1cc(O)c(O)c(O)c1)c1cc(O)c(O)c(O)c1` [Epigallocatechin gallate (EGCG), Epigallocatechin gallate], in assay [2], the “inhibition of nitric oxide production, rank among the three samples” value is on record as “next most inhibitory”. In addition, in assay [3] (LPS 100 ng/ml, 20 hours), the “IL-6 (IC50)” value is 98.99 ± 10.87 mg/L. In assay [4] (LPS 100 ng/ml, 20 hours), the “TNF-α (IC50)” value is 83.68 ± 3.45 mg/L. Moreover, the “inhibition of 5α-reductase type II expression” value in the assay on 5α-reductase type II is “effectively inhibited”. In assay [5] (Compound 48/80 1 mg/ml), the “histamine release inhibition (IC50)” value was determined as 50.0 ± 9.80 mg/L. In addition, the “DPPH radical scavenging ability (IC50)” value in assay [6] came out at 3.40 mg/L. Further, in [7], the “ABTS radical scavenging ability (IC50)” value was 1.65 mg/L.
